molecular target: T1, PRMT5 (Homo sapiens, UniProt O14744); experiment: PRMT5 Cell Target Engagement (TE) Assay; format: cell-based; settings: MCF-7 cells, 3 days treatment, nuclear SDMA by high content imaging
T1 construct: endogenous in cells; host or cells: MCF-7
From the text: The PRMT5 TE assay is a biomarker assay for identifying compounds that inhibit symmetric dimethylation of arginine (SDMA) of PRMT5 substrates. The following substrates have been reported for PRMT5: Histone H2A and H4 R3, Histone H3 R2, Histone H3 R8, spliceosome Sm proteins, ribosomal protein RPS10, p53, FEN1, nucleoplasmin, nucleolin, EGFR and EBNA. The assay will focus on detecting symmetrically dimethylated nuclear proteins using high content imaging technology. Detection of the expression of symmetrically dimethylated nuclear proteins is through a mixture of primary rabbit monoclonal antibodies to SDMA (CST 13222), which in turn recognized by an Alexafluor 488 dye-conjugated anti-rabbit IgG secondary antibody. The IN Cell Analyzer 2200 or Opera-Phenix measures nuclear Alexafluor 488 fluorescent dye intensity that is directly related to the level of expression of symmetrically dimethylated nuclear proteins at the single cell level. Nuclear AF488 dye intensities are compared to the mean value for DMSO treated cells (MIN) to report percent of inhibition for each compound-treated well.
In this assay, the cell potency (EC50) of each compound was determined from a ten point (1:3 serial dilution; top compound concentration of 10000 nM) titration curve using the following outlined procedure. Each well of a BD falcon collagen coated black/clear bottom 384-well plate was seeded with 4000 MCF-7 cells in 30 μl media and allowed to attach for 5 hours. Media is ATCC-formulated Eagle's Minimum Essential Medium, Catalog No. 30-2003. The following components were added to the base medium: 0.01 mg/mL human recombinant insulin; fetal bovine serum to a final concentration of 10%. Additional 30 μl of media containing 2× compounds were added to each well. Cells were treated for 3 days in 37° C. CO2 incubator. On day 3, cells were fixed with Cytofix, permeabilized with 0.4% Triton-X-100/Cytofix, and washed with D-PBS without Ca/Mg. Cells were blocked with Licor Odessey blocking reagent for 1 hour at room temperature, followed by incubation with anti-SDMA (1:1000) antibody at 4° C. overnight. 1° antibody was removed, followed by three washings with DPBS without Ca/Mg and 0.05% Tween20. Hoechst (5 μg/mL), Cell Mask deep stain (1:2000) and Alexa488-conjugated goat anti-rabbit IgG (2 μg/mL) was added for 1 hour at room temperature. A final washing step (three washes) was performed before sealing plate for imaging on In Cell Analyzer 2200 or Opera-Phenix. Images from analyzer were uploaded to Columbus for image analysis. IC50 values were determined by 4 parameters robust fit of percent fluorescence units vs. (Log10) compound concentrations.

T1 sequence (O14744 whole entry): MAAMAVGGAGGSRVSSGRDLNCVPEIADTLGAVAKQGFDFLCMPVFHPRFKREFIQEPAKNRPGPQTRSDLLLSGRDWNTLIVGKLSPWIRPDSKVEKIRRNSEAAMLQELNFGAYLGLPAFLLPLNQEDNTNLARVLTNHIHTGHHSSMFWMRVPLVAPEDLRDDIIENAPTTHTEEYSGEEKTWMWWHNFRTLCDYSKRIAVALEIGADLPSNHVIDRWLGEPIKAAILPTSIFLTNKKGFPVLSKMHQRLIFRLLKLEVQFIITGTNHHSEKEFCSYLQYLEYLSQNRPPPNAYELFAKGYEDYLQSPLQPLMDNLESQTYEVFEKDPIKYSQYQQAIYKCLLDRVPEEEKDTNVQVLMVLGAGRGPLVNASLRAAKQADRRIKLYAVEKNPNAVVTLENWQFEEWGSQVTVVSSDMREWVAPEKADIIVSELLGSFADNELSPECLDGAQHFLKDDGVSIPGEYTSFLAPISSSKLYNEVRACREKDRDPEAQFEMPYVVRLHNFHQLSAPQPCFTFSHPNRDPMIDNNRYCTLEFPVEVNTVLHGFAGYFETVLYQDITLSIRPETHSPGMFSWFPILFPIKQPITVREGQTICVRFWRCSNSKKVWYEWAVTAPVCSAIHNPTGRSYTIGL
T1 sequence (Q9BQA1 whole entry partner): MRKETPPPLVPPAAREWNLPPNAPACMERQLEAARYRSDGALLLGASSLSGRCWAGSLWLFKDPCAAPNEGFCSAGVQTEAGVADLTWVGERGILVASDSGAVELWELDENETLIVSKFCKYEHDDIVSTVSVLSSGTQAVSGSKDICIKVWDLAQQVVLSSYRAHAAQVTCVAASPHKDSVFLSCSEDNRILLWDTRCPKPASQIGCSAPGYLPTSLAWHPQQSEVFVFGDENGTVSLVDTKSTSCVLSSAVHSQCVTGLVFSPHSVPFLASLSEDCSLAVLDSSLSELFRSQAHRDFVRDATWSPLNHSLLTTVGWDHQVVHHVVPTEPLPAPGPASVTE

Compound	EC50 [nM]
C[C@@]1(O)[C@@H]([C@H](O)c2cc(F)cc(C(F)(F)F)c2)O[C@@H](n2ccc3c(N)ncnc32)[C@@H]1O [Example 58, 7-{(5R)-5-C-[3-fluoro-5-(trifluoromethyl)phenyl]-3-C-methyl-beta-D-ribofuranosyl}-7H-pyrrolo[2,3-d]pyrimidin-4-amine]	301
C[C@@]1(O)[C@@H]([C@@H](O)c2cccc(C(F)(F)F)c2)O[C@@H](n2ccc3c(N)ncnc32)[C@@H]1O [Example 55, 7-{(5S)-3-C-methyl-5-C-[3-(trifluoromethyl)phenyl]-beta-D-ribofuranosyl}-7H-pyrrolo[2,3-d]pyrimidin-4-amine]	> 10000
C[C@@]1(O)[C@@H]([C@H](O)c2cc(F)cc(Cl)c2)O[C@@H](n2ccc3c(N)ncnc32)[C@@H]1O [Example 26, 7-[(5R)-5-C-(3-chloro-5-fluorophenyl)-3-C-methyl-beta-D-ribofuranosyl]-7H-pyrrolo[2,3-d]pyrimidin-4-amine]	34
Cc1ccc([C@@H](O)[C@H]2O[C@@H](n3ccc4c(N)ncnc43)[C@H](O)[C@]2(C)O)cc1 [Example 30, 7-[(5R)-3-C-methyl-5-C-(4-methylphenyl)-beta-D-ribofuranosyl]-7H-pyrrolo[2,3-d]pyrimidin-4-amine]	3170
C[C@@]1(O)[C@@H]([C@@H](O)c2cccc(F)c2F)O[C@@H](n2ccc3c(N)ncnc32)[C@@H]1O [Example 45, 7-[(5S)-5-C-(2,3-difluorophenyl)-3-C-methyl-beta-D-ribofuranosyl]-7H-pyrrolo[2,3-d]pyrimidin-4-amine]	> 10000
C[C@@]1(O)[C@@H]([C@H](O)c2cccc(Cl)c2)O[C@@H](n2ccc3c(N)ncnc32)[C@@H]1O [Example 16, 7-[(5R)-5-C-(3-chlorophenyl)-3-C-methyl-beta-D-ribofuranosyl]-7H-pyrrolo[2,3-d]pyrimidin-4-amine]	80

Further lines, results first:

EC50 [nM]	Compound
435	C[C@@]1(O)[C@@H]([C@H](O)c2ccc(F)c(C(F)F)c2F)O[C@@H](n2ccc3c(N)ncnc32)[C@@H]1O [Example 67, 7-{(5R)-5-C-[3-(difluoromethyl)-2,4-difluorophenyl]-3-C-methyl-beta-D-ribofuranosyl}-7H-pyrrolo[2,3-d]pyrimidin-4-amine]
507	C[C@]1(O)[C@@H](O)[C@H](n2ccc3c(N)ncnc32)O[C@@H]1[C@@](C)(O)c1cccc2c1CNCC2 [Example 69, 7-[6-deoxy-3-C-methyl-5-C-(1,2,3,4-tetrahydroisoquinolin-8-yl)-beta-D-allofuranosyl]-7H-pyrrolo[2,3-d]pyrimidin-4-amine]
> 10000	C[C@@]1(O)[C@@H]([C@@H](O)c2cc(C(F)F)ccn2)O[C@@H](n2ccc3c(N)ncnc32)[C@@H]1O [Example 73, 7-{(5S)-5-C-[4-(difluoromethyl)pyridin-2-yl]-3-C-methyl-beta-D-ribofuranosyl}-7H-pyrrolo[2,3-d]pyrimidin-4-amine]
> 10000	C[C@@]1(O)[C@@H]([C@@H](O)c2cc(Cl)cc(C(F)(F)F)c2)O[C@@H](n2ccc3c(N)ncnc32)[C@@H]1O [Example 61, 7-{(5S)-5-C-[3-chloro-5-(trifluoromethyl)phenyl]-3-C-methyl-beta-D-ribofuranosyl}-7H-pyrrolo[2,3-d]pyrimidin-4-amine]
47	Cc1ncnc2c1ccn2[C@@H]1O[C@H]([C@](C)(O)c2cccc3c2CNCC3)[C@@](C)(O)[C@H]1O [Example 88, (2R,3S,4R,5R)-2-((R)-1-hydroxy-1-(1,2,3,4-tetrahydroisoquinolin-8-yl)ethyl)-3-methyl-5-(4-methyl-7H-pyrrolo[2,3-d]pyrimidin-7-yl)tetrahydrofuran-3,4-diol]
1200	C[C@]1(O)[C@@H](O)[C@H](n2ccc3c(N)ncnc32)O[C@@H]1[C@](C)(O)c1cc(C(F)F)ccn1 [Example 76, 7-{6-deoxy-5-C-[4-(difluoromethyl)pyridin-2-yl]-3-C-methyl-alpha-L-talofuranosyl}-7H-pyrrolo[2,3-d]pyrimidin-4-amine]
